Assay results reported in ChEMBL document CHEMBL4400521, “Plasma kallikrein cleaves and inactivates apelin-17: Palmitoyl- and PEG-extended apelin-17 analogs as metabolically stable blood pressure-lowering agents” (Eur J Med Chem, 2019).
Active and inactive are the calls of the source. The rule behind the calls is not given here. Non-standard residues stand in square brackets, D forms with d. Residues, ends and D or L forms follow the SMILES beside them. *: point of attachment. Phe(4-Br) = N[C@@H](Cc1ccc(Br)cc1)C(=O)O; Fmoc = O=C(OCC1c2ccccc2-c2ccccc21)*; PEG6 = NCCOCCOCCOCCOCCOCCOCCC(=O)O; Palmitoyl = CCCCCCCCCCCCCCCC(=O)*; NMeL = CN[C@@H](CC(C)C)C(=O)O; Nle = CCCC[C@H](N)C(=O)O; Aib = CC(C)(N)C(=O)O

Tests used:
Mus musculus [1] = assay: Blood pressure lowering activity in anesthetized mouse assessed as increase in heart rate at 1.4 uM/kg, iv measured up to 60 mins; type: functional, organism-based
[2] = molecular target: T1, Apelin receptor (Rattus norvegicus) (UniProt Q9JHG3); assay: Displacement of [125I]-(Glp1,Nle11,[…])apelin-13 from recombinant rat EGFP-fused apelin receptor expressed in CHO cell membrane measured after 3 hrs; type: cell membranes
T1 sequence (whole entry): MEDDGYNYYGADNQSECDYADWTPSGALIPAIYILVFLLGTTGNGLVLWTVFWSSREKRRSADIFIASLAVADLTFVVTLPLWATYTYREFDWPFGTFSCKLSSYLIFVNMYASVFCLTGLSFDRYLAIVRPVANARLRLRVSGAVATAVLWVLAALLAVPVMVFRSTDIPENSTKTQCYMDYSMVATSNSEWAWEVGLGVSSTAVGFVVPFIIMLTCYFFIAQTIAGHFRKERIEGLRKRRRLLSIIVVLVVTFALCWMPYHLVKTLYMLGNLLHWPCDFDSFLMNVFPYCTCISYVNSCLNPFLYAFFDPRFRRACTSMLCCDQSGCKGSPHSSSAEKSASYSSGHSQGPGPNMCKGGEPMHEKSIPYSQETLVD

Mus musculus [3] = assay: Blood pressure lowering activity in anesthetized mouse assessed as change in mean arterial blood pressure at 1.4 uM/kg, iv; type: functional; conditions: TDE = time-dependent effect
[4] = tested on: CSCC[C@H](NC(=O)[C@H](CO)NC(=O)[C@H](CO)NC(=O)[C@H](CC(C)C)NC(=O)[C@@H](N)CO)C(=O)N[C@H](C(=O)N[C@@H](CCCNC(=N)N)C(=O)N[C@H](C(=O)N[C@H](C(=O)NCC(=O)NCC(=O)O)C(C)C)C(C)C)[C@@H](C)O; assay: Substrate activity at human KLKB1 assessed as Km by spectrofluorimetric method; type: ADME
[5] = tested on: CCCC[C@H](NC(=O)[C@@H]1CCCN1C(=O)CNC(=O)[C@H](CCCCN)NC(=O)[C@H](Cc1c[nH]cn1)NC(=O)[C@H](CO)NC(=O)[C@H](CC(C)C)NC(=O)[C@H](CCCNC(=N)N)NC(=O)[C@@H]1CCCN1C(=O)[C@H](CCCNC(=N)N)NC(=O)[C@H](CCC(N)=O)NC(=O)[C@H](CCCNC(=N)N)NC(=O)[C@H](CCCNC(=N)N)NC(=O)[C@H](Cc1ccccc1)NC(=O)[C@@H](N)CCCCN)C(=O)NC(C)(C)C(=O)N[C@@H](Cc1ccc(Br)cc1)C(=O)O; assay: (§1) Substrate activity at recombinant human C-terminal His6-tagged KLKB1 (Pro19 to Ser262 residues) expressed in mammalian expression system assessed as Km measured after 30 to 60 mins by LC-MS analysis; type: ADME
[6] = tested on: CCCC[C@H](NC(=O)[C@@H]1CCCN1C(=O)CNC(=O)[C@H](CCCCN)NC(=O)[C@H](Cc1c[nH]cn1)NC(=O)[C@H](CO)NC(=O)[C@H](CC(C)C)N(C)C(=O)[C@H](CCCNC(=N)N)NC(=O)[C@@H]1CCCN1C(=O)[C@H](CCCNC(=N)N)NC(=O)[C@H](CCC(N)=O)NC(=O)[C@H](CCCNC(=N)N)NC(=O)[C@H](CCCNC(=N)N)NC(=O)[C@H](Cc1ccccc1)NC(=O)[C@@H](N)CCCCN)C(=O)NC(C)(C)C(=O)N[C@@H](Cc1ccc(Br)cc1)C(=O)O; assay: as §1; type: ADME
[7] = tested on: CC[C@H](C)[C@H](NC(=O)[C@H](CCCNC(=N)N)NC(=O)[C@H](CC(C)C)NC(=O)[C@H](CO)NC(=O)[C@H](CCCNC(=N)N)NC(=O)[C@H](Cc1ccccc1)NC(=O)[C@@H]1CCCN1C(=O)[C@H](CO)NC(=O)[C@H](Cc1ccccc1)NC(=O)CNC(=O)c1ccccc1N)C(=O)N[C@@H](CCC(N)=O)C(=O)NCCNc1ccc([N+](=O)[O-])cc1[N+](=O)[O-]; assay: (§2) Substrate activity at human KLKB1 assessed as Km by fluorescence assay; type: ADME
[8] = tested on: CC[C@H](C)[C@H](NC(=O)[C@H](CCCNC(=N)N)NC(=O)[C@H](CO)NC(=O)[C@H](CO)NC(=O)[C@H](CCCNC(=N)N)NC(=O)[C@H](Cc1ccccc1)NC(=O)[C@@H]1CCCN1C(=O)[C@H](CO)NC(=O)[C@H](Cc1ccccc1)NC(=O)CNC(=O)c1ccccc1N)C(=O)N[C@@H](CCC(N)=O)C(=O)NCCNc1ccc([N+](=O)[O-])cc1[N+](=O)[O-]; assay: as §2; type: ADME

Chain of Plasma kallikrein (Homo sapiens) (chain, as listed by the source): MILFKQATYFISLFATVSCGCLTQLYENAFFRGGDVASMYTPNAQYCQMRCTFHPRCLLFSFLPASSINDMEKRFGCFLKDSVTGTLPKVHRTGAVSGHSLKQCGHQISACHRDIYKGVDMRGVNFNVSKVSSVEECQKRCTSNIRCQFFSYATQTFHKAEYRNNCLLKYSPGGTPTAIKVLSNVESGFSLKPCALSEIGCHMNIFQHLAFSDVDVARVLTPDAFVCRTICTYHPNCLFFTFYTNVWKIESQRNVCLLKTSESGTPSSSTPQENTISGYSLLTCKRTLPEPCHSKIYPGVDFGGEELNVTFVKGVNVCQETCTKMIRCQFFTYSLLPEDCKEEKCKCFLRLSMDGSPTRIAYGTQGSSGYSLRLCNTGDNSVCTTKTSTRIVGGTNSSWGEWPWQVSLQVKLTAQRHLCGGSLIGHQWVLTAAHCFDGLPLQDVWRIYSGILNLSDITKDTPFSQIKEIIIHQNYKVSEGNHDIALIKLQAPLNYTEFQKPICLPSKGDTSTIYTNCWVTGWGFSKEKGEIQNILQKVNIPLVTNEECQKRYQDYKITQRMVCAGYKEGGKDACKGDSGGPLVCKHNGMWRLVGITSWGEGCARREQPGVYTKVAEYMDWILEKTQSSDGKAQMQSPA

| Molecule | displacement activity (active/inactive) [2] | Activity (Mus musculus [3]) | also measured |
| --- | --- | --- | --- |
| CCCCCCCCCCCCCCCC(=O)N[C@@H](CCCCN)C(=O)N[C@@H](Cc1ccccc1)C(=O)N[C@@H](CCCNC(=N)N)C(=O)N[C@@H](CCCNC(=N)N)C(=O)N[C@@H](CCC(N)=O)C(=O)N[C@@H](CCCNC(=N)N)C(=O)N1CCC[C@H]1C(=O)N[C@@H](CCCNC(=N)N)C(=O)N(C)[C@@H](CC(C)C)C(=O)N[C@@H](CO)C(=O)N[C@@H](Cc1cnc[nH]1)C(=O)N[C@@H](CCCCN)C(=O)NCC(=O)N1CCC[C@H]1C(=O)N[C@@H](CCCC)C(=O)NC(C)(C)C(=O)N[C@@H](Cc1ccc(Br)cc1)C(=O)O (Palmitoyl-KFRRQRPR[NMeL]SHKGP[Nle][Aib][Phe(4-Br)]-OH) | Active |  | Activity (Mus musculus [1]): Active |
| CCCC[C@H](NC(=O)[C@@H]1CCCN1C(=O)CNC(=O)[C@H](CCCCN)NC(=O)[C@H](Cc1cnc[nH]1)NC(=O)[C@H](CO)NC(=O)[C@H](CC(C)C)N(C)C(=O)[C@H](CCCNC(=N)N)NC(=O)[C@@H]1CCCN1C(=O)[C@H](CCCNC(=N)N)NC(=O)[C@H](CCC(N)=O)NC(=O)[C@@H](N)CCCNC(=N)N)C(=O)NC(C)(C)C(=O)N[C@@H](Cc1ccc(Br)cc1)C(=O)O (H-RQRPR[NMeL]SHKGP[Nle][Aib][Phe(4-Br)]-OH) | Active | Tde |  |
| CCCC[C@H](NC(=O)[C@@H]1CCCN1C(=O)CNC(=O)[C@H](CCCCN)NC(=O)[C@H](Cc1c[nH]cn1)NC(=O)[C@H](CO)NC(=O)[C@H](CC(C)C)N(C)C(=O)[C@H](CCCNC(=N)N)NC(=O)[C@@H]1CCCN1C(=O)[C@H](CCCNC(=N)N)NC(=O)[C@H](CCC(N)=O)NC(=O)[C@H](CCCNC(=N)N)NC(=O)[C@H](CCCNC(=N)N)NC(=O)[C@H](Cc1ccccc1)NC(=O)[C@@H](N)CCCCN)C(=O)NC(C)(C)C(=O)N[C@@H](Cc1ccc(Br)cc1)C(=O)O (H-KFRRQRPR[NMeL]SHKGP[Nle][Aib][Phe(4-Br)]-OH) | Active | Tde |  |
| CCCC[C@H](NC(=O)[C@@H]1CCCN1C(=O)CNC(=O)[C@H](CCCCN)NC(=O)[C@H](Cc1cnc[nH]1)NC(=O)[C@H](CO)NC(=O)[C@H](CC(C)C)N(C)C(=O)[C@H](CCCNC(=N)N)NC(=O)[C@@H]1CCCN1C(=O)[C@H](CCCNC(=N)N)NC(=O)[C@H](CCC(N)=O)NC(=O)[C@H](CCCNC(=N)N)NC(=O)[C@H](CCCNC(=N)N)NC(=O)[C@H](Cc1ccccc1)NC(=O)[C@H](CCCCN)NC(=O)CCOCCOCCOCCOCCOCCOCCNC(=O)OCC1c2ccccc2-c2ccccc21)C(=O)NC(C)(C)C(=O)N[C@@H](Cc1ccc(Br)cc1)C(=O)O ({Fmoc-PEG6}-KFRRQRPR[NMeL]SHKGP[Nle][Aib][Phe(4-Br)]-OH) | Active | Tde |  |
| CCCC[C@H](NC(=O)[C@@H]1CCCN1C(=O)CNC(=O)[C@H](CCCCN)NC(=O)[C@H](Cc1cnc[nH]1)NC(=O)[C@H](CO)NC(=O)[C@H](CC(C)C)NC(=O)[C@H](CCCNC(=N)N)NC(=O)[C@@H]1CCCN1C(=O)[C@H](CCCNC(=N)N)NC(=O)[C@H](CCC(N)=O)NC(=O)[C@H](CCCNC(=N)N)NC(=O)[C@H](CCCNC(=N)N)NC(=O)[C@H](Cc1ccccc1)NC(=O)[C@H](CCCCN)NC(=O)CCOCCOCCOCCOCCOCCOCCNC(=O)OCC1c2ccccc2-c2ccccc21)C(=O)NC(C)(C)C(=O)N[C@@H](Cc1ccc(Br)cc1)C(=O)O ({Fmoc-PEG6}-KFRRQRPRLSHKGP[Nle][Aib][Phe(4-Br)]-OH) | Active | Tde |  |
| Plasma kallikrein (Homo sapiens) |  |  | Km [4]: 2.4 µM; kcat [4]: 0.001 s⁻¹; kcat/Km [4]: 420 M⁻¹ s⁻¹; Km [5]: 30 µM; Vmax [5]: 0.316 µmol/min; kcat [5]: 1.4 s⁻¹; kcat/Km [5]: 47000 M⁻¹ s⁻¹; Km [6]: 245 µM; Vmax [6]: 3.71 µmol/min; kcat [6]: 16.5 s⁻¹; kcat/Km [6]: 67000 M⁻¹ s⁻¹; Km [7]: 1.8 µM; Km [8]: 2.2 µM |
| CCCCCCCCCCCCCCCC(=O)N[C@@H](CCCCN)C(=O)N[C@@H](Cc1ccccc1)C(=O)N[C@@H](CCCNC(=N)N)C(=O)N[C@@H](CCCNC(=N)N)C(=O)N[C@@H](CCC(N)=O)C(=O)N[C@@H](CCCNC(=N)N)C(=O)N1CCC[C@H]1C(=O)N[C@@H](CCCNC(=N)N)C(=O)N[C@@H](CC(C)C)C(=O)N[C@@H](CO)C(=O)N[C@@H](Cc1cnc[nH]1)C(=O)N[C@@H](CCCCN)C(=O)NCC(=O)N1CCC[C@H]1C(=O)N[C@@H](CCCC)C(=O)NC(C)(C)C(=O)N[C@@H](Cc1ccc(Br)cc1)C(=O)O (Palmitoyl-KFRRQRPRLSHKGP[Nle][Aib][Phe(4-Br)]-OH) | Active | Tde |  |
| CCCC[C@H](NC(=O)[C@@H]1CCCN1C(=O)CNC(=O)[C@H](CCCCN)NC(=O)[C@H](Cc1c[nH]cn1)NC(=O)[C@H](CO)NC(=O)[C@H](CC(C)C)NC(=O)[C@H](CCCNC(=N)N)NC(=O)[C@@H]1CCCN1C(=O)[C@H](CCCNC(=N)N)NC(=O)[C@H](CCC(N)=O)NC(=O)[C@H](CCCNC(=N)N)NC(=O)[C@H](CCCNC(=N)N)NC(=O)[C@H](Cc1ccccc1)NC(=O)[C@@H](N)CCCCN)C(=O)NC(C)(C)C(=O)N[C@@H](Cc1ccc(Br)cc1)C(=O)O (H-KFRRQRPRLSHKGP[Nle][Aib][Phe(4-Br)]-OH) | Active | Tde |  |
| CCCC[C@H](NC(=O)[C@@H]1CCCN1C(=O)CNC(=O)[C@H](CCCCN)NC(=O)[C@H](Cc1cnc[nH]1)NC(=O)[C@H](CO)NC(=O)[C@H](CC(C)C)NC(=O)[C@H](CCCNC(=N)N)NC(=O)[C@@H]1CCCN1C(=O)[C@H](CCCNC(=N)N)NC(=O)[C@H](CCC(N)=O)NC(=O)[C@@H](N)CCCNC(=N)N)C(=O)NC(C)(C)C(=O)N[C@@H](Cc1ccc(Br)cc1)C(=O)O (H-RQRPRLSHKGP[Nle][Aib][Phe(4-Br)]-OH) | Active | Tde |  |
| CSCC[C@H](NC(=O)[C@@H]1CCCN1C(=O)CNC(=O)[C@H](CCCCN)NC(=O)[C@H](Cc1cnc[nH]1)NC(=O)[C@H](CO)NC(=O)[C@H](CC(C)C)NC(=O)[C@H](CCCNC(=N)N)NC(=O)[C@@H]1CCCN1C(=O)[C@H](CCCNC(=N)N)NC(=O)[C@H](CCC(N)=O)NC(=O)[C@H](CCCNC(=N)N)NC(=O)[C@H](CCCNC(=N)N)NC(=O)[C@H](Cc1ccccc1)NC(=O)[C@@H](N)CCCCN)C(=O)N1CCC[C@H]1C(=O)N[C@@H](Cc1ccccc1)C(=O)O |  | Tde |  |
